# Measurements: patent US20240417778A1, “Methods for Nucleic Acid Cleavage” (priority 2021, published 2024)
# Entries after “also recorded” stand apart in the source; their conditions may differ.
# What was measured:
# E. coli ribosome = assay: In vitro degradation of E. coli ribozyme (agarose gel); format: biochemical; conditions: 15 mM to 0.47 mM, 18 hours, 200 μM ribozyme
# Experimental: The degradation activity was measured in an in vitro assay, targeting the E. coli ribosome. […] Evaluation was made by agarose gel analysis.
# pseudoknot = conditions: relative to MTDB (Park et al., 2011); cited from earlier work
# [1] = tested on: oligomer corresponding to the coronaviral pseudoknot; conditions: shape of MST binding curve
# [2] = tested on: RNA 69-er with a sequence that corresponds to the coronaviral pseudoknot; format: biochemical; conditions: 1 mM, 3 h incubation, 37° C.
# SARS-CoV-2 [3] = assay: Virucidal activity on cell free virions; conditions: 6 μM, 1 h at 37° C., 1000 PFU, plaque assay
# SARS-CoV-2 [4] = format: in vivo, K18-hACE2 mice; conditions: 10 mg/kg intranasally 1 hour pre- and 3 hours post-infection, day 5, plaque assay, vs vehicle
# [5] = molecular target: perturbed pseudoknot oligonucleotide; assay: Micro-scale thermophoresis (MST), perturbed pseudoknot; format: binding; conditions: FAM-tagged oligonucleotide 50 nM, HEPES pH 7.4, 25.0° C.
# SARS-CoV-2 [6] = format: cell-based; conditions: 6 μM for 24 h, added before or after infection, vs vehicle control
# [7] = tested on: RNA extracted from SARS-CoV-2; format: biochemical; conditions: 100 μM, 2 h, 37° C.
# SARS-CoV-2 [8] = assay: Drug assay of SARS-CoV-2 replication on Vero CCL-81 cells (PCR); format: cell-based; conditions: Vero CCL-81, MOI 0.05, 24 h, added 1 h before or 1 h after infection
# [9] = Solubility in aqueous media
# [10] = tested on: frameshifting in SARS-CoV-2; conditions: Kelly et al., 2020; cited from earlier work
# [11] = tested on: G4 structure found on 5′UTR of NRAS mRNA; assay: Fluorescence quenching assay; format: binding; conditions: Cy5-tagged oligonucleotide 50 nM, HEPES pH 7.4, 25.0° C.
# Experimental: To prepare oligonucleotides for binding studies, oligonucleotides were dissolved at an appropriate buffer to a final concentration of 100 nM, then incubated at 95° C. with shaking for 5 min. Samples were allowed to cool at room temperature for at least 1 h before further dilutions/treatments.
# Cy5-tagged oligonucleotide corresponding to G4 structure found on 5′UTR of NRAS mRNA (final concentration 50 nM) were dissolved in 20 mM HEPES pH 7.4 buffer supplemented with KCl (100 mM) and MgCl2 (10 mM) and plated on a 96-well plate. Oligonucleotides were treated with various concentrations of PDS family ligands as indicated, ranging from 5 nM to 10 μM, or a water vehicle control, followed by 30 minute incubation at 4° C. Fluorescence corresponding to Cy5 fluorophore was then measured for each oligonucleotide-small molecule/vehicle control combination using a plate reader (BMG CLARIOstar) at 25.0° C. […] Fluorescence was normalised to a vehicle control and binding curves for each molecule were obtained via a sigmoidal fit by setting the Hill Slope coefficient to 1.
# PDS and its derivatives were incubated with a Cy5-functionalised oligomer corresponding to a G-quadruplex in NRAS 5′UTR, a well-established G4 model. As fluorescence quenching is proximity-induced, the signal corresponding to Cy5 is quenched upon PDS binding. […]
molecule,measurement,setting,value
chloramphenicol-6PEG-imidazole degrader [18a],ribosome degradation,E. coli ribosome,no degradation visible
"O=C(N[C@H](CO)[C@H](O)c1ccc([N+](=O)[O-])cc1)C(Cl)Cl [chloramphenicol, Chloramphenicol]",ribosome degradation,E. coli ribosome,no degradation
CCOC(=O)c1ccccc1NC(=O)N1CCCN(Cc2ccsc2)CC1 [TDB],binding affinity towards the pseudoknot,pseudoknot,lower binding affinity towards the pseudoknot
chloramphenicol-2PEG-imidazole degrader [18b],ribosome degradation,E. coli ribosome,ribosome degradation could be observed at a concentration of 15 mM
same,ribosome degradation,E. coli ribosome; listed as diethylene glycol linker,degradation visible at 15 mM concentration
chloramphenicol-ethyl-imidazole degrader [18c],ribosome degradation,E. coli ribosome,no degradation visible
CCOC(=O)c1ccccc1NC(=O)N1CCCN(Cc2csc(C)n2)CC1 [MTDB],concentration with noticeable binding,[1],≥ 187.5 µM
same,degradation of RNA pseudoknot,[2],no degradation
same,virucidal effect,SARS-CoV-2 [3],no virucidal effect was observed; also recorded: no virucidal effect on cell free virions
same,lung viral load,SARS-CoV-2 [4],No differences in lung viral load
same,KD,[5],No appreciable binding was observed
same,number of viral plaques,SARS-CoV-2 [6],only showed decreased number of viral plaques when added before infection
same,degradation of native SARS-CoV-2 RNA on agarose gel,[7],do not
same,"antiviral effect (viral replication, E gene and pseudoknot region RNA)",SARS-CoV-2 [8],did not exhibit an antiviral effect; also recorded: did not inhibit viral replication
same,solubility,[9],not soluble enough for KD determination using MST; also recorded: limited solubility
same,frameshifting,[10],known to disrupt frameshifting in SARS-CoV-2
"NCCOc1cc(C(=O)Nc2cc(OCCN)c3ccccc3n2)nc(C(=O)Nc2cc(OCCN)c3ccccc3n2)c1 [PDS, Pyridostatin]",EC50,[11],51 nM
